# Assay results published in patent publication US20230277533A1, “THERAPEUTIC COMBINATIONS COMPRISING UBIQUITIN-SPECIFIC-PROCESSING PROTEASE 1 (USP1) INHIBITORS AND POLY (ADP-RIBOSE) POLYMERASE (PARP) INHIBITORS” (KSQ Therapeutics, Inc., priority 2020, published 2023).
# Read-outs that look alike come from different tables or passages of the source.
# Key:
# Test in all cases: Colony formation (CFU) assay
# Assay type in all cases: cell-based
# [1] = system: NCIH520; conditions: Homo sapiens, NCI-H520, NCIH520, lung
# Method: (§1) In vitro experiments were conducted using the colony formation unit (CFU) assay on various cell lines. The CFU assay involved first establishing what cell plating density enabled the development of clearly interspersed colonies on a six-well plate when left to grow for around 14 days. […] Media was changed on day 8 containing appropriate concentrations of DMSO, USP1 inhibitor, Niraparib, or Olaparib. At or around day 14 when clearly interspersed colonies were visible in the DMSO treated wells, the cells were fixed and stained using 0.1% crystal violet in 10% ethanol for 20 minutes at room temperature. The plates were imaged then the amount of crystal violet stain in each well was quantified by extracting the crystal violet into 10% acetic acid and the absorbance measured at 565 nm.
# (§2) IC50 values were calculated by fitting a two-parameter hill equation to the dose-response measurements. Non-linear-least-squares was used to find parameter values that minimize the squared error of the model fit to measured dose response. Non-linear-least-squares estimation was performed using the minpack.lm R package, version 1.2-1. Bliss synergy scores were calculated using the synergyfinder R package version 1.6.1.
# [2] = system: HPAC; conditions: Homo sapiens
# Method: as §1, §2
# [3] = system: TE11; conditions: Homo sapiens, TE-11, TE11, esophagus
# Method: as §1, §2
# [4] = system: CW2; conditions: Homo sapiens, CW-2, CW2, colon
# Method: as §1, §2
# [5] = system: MDAMB436; conditions: Homo sapiens, MDA-MB-436, MDAMB436, breast
# Method: as §1, §2
# [6] = system: HCC1806; conditions: Homo sapiens, HCC1806, breast
# Method: as §1, §2
# [7] = system: UWB1289BRCA1; conditions: UWB1289BRCA1, ovary
# Method: as §1, §2
# [8] = system: MSTO211H; conditions: Homo sapiens, MSTO-211H
# Method: as §1, §2
# [9] = system: COV362
# Method: as §1, §2
# [10] = system: HCT116; conditions: Homo sapiens, HCT-116, HCT116, colon
# Method: as §1, §2
# [11] = system: GB1; conditions: Homo sapiens, GB-1; GB1, nervous system
# Method: In vitro experiments were conducted using the colony formation unit (CFU) assay on various cell lines. The CFU assay involved first establishing what cell plating density enabled the development of clearly interspersed colonies on a six-well plate when left to grow for around 14 days. Once this density had been identified, cells were plated on day −1 and on day 0, the wells were treated with DMSO or increasing concentrations of USP1 inhibitor or Niraparib (3 nM, 10 nM, 30 nM, 100 nM, and 300 nM), or increasing concentrations of USP1 inhibitor or Olaparib (3 nM, 10 nM, 30 nM, 100 nM, and 300 nM). Media was changed on day 8 containing appropriate concentrations of DMSO, USP1 inhibitor, Niraparib, or Olaparib. […] The plates were imaged then the amount of crystal violet stain in each well was quantified by extracting the crystal violet into 10% acetic acid and the absorbance measured at 565 nm.
# as §2, with “Non-linear-least-squares estimation was performed using the minpack.lm R package, version 1.2-1.” left out
# [12] = system: HEC1B; conditions: Homo sapiens, HEC-1B, uterus
# Method: as §1, §2
# [13] = system: HS870T; conditions: bone
# Method: as §1, §2
# [14] = system: HS739T; conditions: breast
# Method: as §1, §2
# [15] = system: HS821T; conditions: bone
# Method: as §1, §2
# [16] = system: HT144; conditions: Homo sapiens, HT-144; HT144, skin
# Method: as §1, §2
# [17] = system: OVMANA; conditions: ovary
# Method: as §1, §2
# [18] = system: SNU489; conditions: SNU489, nervous system
# Method: as §1, §2
# [19] = system: MG63; conditions: Homo sapiens, MG-63; MG63, bone
# Method: as §1, §2
# [20] = system: T226; conditions: T226, breast
# Method: as §1, §2
# [21] = system: HBCx3; conditions: HBCx3, breast
# Method: as §1, §2
# [22] = system: DMS53; conditions: Homo sapiens, DMS-53; DMS53, lung
# Method: as §1, §2
# [23] = system: U251MG; conditions: Homo sapiens, U-251, nervous system
# Method: as §1, §2
# [24] = system: SKOV3_ATMnull; conditions: ovary
# Method: as §1, §2
# [25] = system: UWB1289; conditions: for sensitivity to single agents: UWB1.289, BRCA1 mutant ovarian cell line; for IC50: UWB1289, ovary
# Method: as §1, §2
# [26] = system: HUO3N1; conditions: HUO3N1, bone
# Method: as §1, §2
# [27] = system: NCIH1648; conditions: Homo sapiens, NCI-H1648; NCIH1648, lung
# Method: as §1, §2
# [28] = system: HCC1569; conditions: Homo sapiens; HCC1569, breast
# Method: as §1, §2
# [29] = system: JHH7; conditions: JHH7, liver
# Method: as §1, §2
# [30] = system: HUO9; conditions: HUO9, bone
# Method: as §1, §2
# [31] = system: SKOV3_OR1a1null; conditions: ovary
# Method: as §1, §2
# [32] = system: HBCx2; conditions: HBCx2, breast
# Method: as §1, §2
SMILES,IC50 [11] [nM],IC50 [12] [nM],IC50 [13] [nM],IC50 [14] [nM],IC50 [15] [nM],IC50 [1] [nM],IC50 [16] [nM],IC50 [17] [nM],IC50 ([2]; pancreas) [nM],IC50 [3] [nM],IC50 [18] [nM],IC50 [19] [nM],IC50 [20] [nM],IC50 [4] [nM],IC50 [5] [nM],IC50 [6] [nM],IC50 [21] [nM],IC50 [22] [nM],IC50 [23] [nM],IC50 [7] [nM],further results
"COc1ncnc(C2CC2)c1-c1ncc2cnn(Cc3ccc(-c4nc(C(F)(F)F)cn4C(C)C)cc3)c2n1 [Formula I, 6-(4-cyclopropyl-6-methoxypyrimidin-5-yl)-1-(4-(1-isopropyl-4-(trifluoromethyl)-1H-imidazol-2-yl)benzyl)-1H-pyrazolo[3,4-d]pyrimidine]",–,–,–,–,–,–,–,–,–,–,–,–,–,–,–,–,–,–,–,–,"IC50 ([1]; Table 2): > 316 nM; IC50 ([2]; Table 2, pancreas): > 316 nM; IC50 ([3]; Table 2): > 316 nM; IC50 ([4]; Table 2): 67 nM; IC50 ([5]; Table 2): 4.5 nM; IC50 ([6]; Table 2): 62 nM; IC50 ([7]; Table 2): 113 nM; IC50 ([8]; Table 2, lung): > 316 nM; IC50 ([9]; Table 2, COV362, ovary, read-out: IC50): 203 nM; IC50 ([10]; Table 2): > 316 nM"
"COc1ncnc(C2CC2)c1-c1ncc2cnn(Cc3ccc(-c4nc(C(F)(F)F)cn4C)cc3)c2n1 [Formula II, 6-(4-cyclopropyl-6-methoxypyrimidin-5-yl)-1-(4-(1-methyl-4-(trifluoromethyl)-1H-imidazol-2-yl)benzyl)-1H-pyrazolo[3,4-d]pyrimidine]",> 300,> 300,> 300,> 300,> 300,> 300,84.3,> 300,> 300,134,> 300,> 300,> 300,> 300,6.46,114,> 300,> 300,> 300,139,IC50 [24]: > 300 nM; sensitivity to single agents [25]: sensitive; IC50 [25]: 22.3 nM; IC50 ([8]; lung): > 300 nM; IC50 ([9]; COV362): > 300 nM; activity as single agents ([9]; COV362): modest activity; IC50 [26]: > 300 nM; IC50 [27]: > 300 nM; IC50 [28]: > 300 nM; IC50 [29]: > 300 nM; IC50 [10]: 110 nM; IC50 [30]: > 300 nM; IC50 [31]: > 300 nM; IC50 [32]: > 300 nM
"NC(=O)c1cccc2cn(-c3ccc([C@@H]4CCCNC4)cc3)nc12 [Niraparib, niraparib, reference compound]",> 300,> 300,> 300,> 300,> 300,> 300,114,> 300,> 300,176,> 300,> 300,> 300,> 300,4.73,62.9,20.8,168,> 300,186,"IC50 [24]: > 300 nM; sensitivity to single agents [25]: sensitive; IC50 [25]: 28.4 nM; IC50 ([8]; lung): > 300 nM; activity as single agents ([9]; COV362): modest activity; IC50 ([9]; COV362, ovary, read-out: IC50): 177 nM; IC50 [26]: > 300 nM; IC50 [27]: > 300 nM; IC50 [28]: 97.3 nM; IC50 [29]: > 300 nM; IC50 [10]: > 300 nM; IC50 [30]: > 300 nM; IC50 [31]: > 300 nM; IC50 [32]: > 300 nM"
